Experimental data from US5583000A, “Protease-binding compounds and methods of use” (priority 1993, dated 1996).
≈ marks a conversion by molar mass, not a printed value. Where two headings read alike, the source gives them in different places.

Tests used:
[1] = molecular target: HIV-1 PR Q7K (Human immunodeficiency virus type 1 group M subtype B, UniProt P03369, Q497K); format: biochemical
[2] = molecular target: HIV-1 PR C95M (Human immunodeficiency virus type 1 group M subtype B, UniProt P03369, C585M); assay: Protection experiment, incorporation of radio-labelled UCSF84; format: binding; conditions: preincubation 10 μM, then radio-labelled UCSF84
[3] = molecular target: T1, HIV-2 PR (Human immunodeficiency virus type 2 subtype A, UniProt P04584); assay: as above; format: binding
T1 construct: HIV-2 PR (at a final concentration of 30 μg/mL); made in house
T1 sequence (P04584 514-612 limits assumed): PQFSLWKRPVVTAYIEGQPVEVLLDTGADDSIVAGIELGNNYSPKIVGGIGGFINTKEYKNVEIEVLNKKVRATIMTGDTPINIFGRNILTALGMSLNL

[4] = molecular target: T1, HIV-2 PR; assay: biochemical; format: biochemical; conditions: for KI (inactivation): inhibitor concentration resulting in half-maximal inactivation, pH 8.0, 25° C., read-out: kinact (μM) HIV-2; for kinact: pH 8, maximum inactivation rate, read-out: Vinact (min^-1 × 10^3) HIV-2 (converted)
[5] = molecular target: T2, HIV-1 PR (Human immunodeficiency virus type 1 group M subtype B, UniProt P03369); assay: biochemical; format: binding; conditions: 1 h, pH 8; preincubation 10 μM one hour, then radio-labelled UCSF84 200 μM; read-out: blocking of radioactivity incorporation to HIV-1 PR
[6] = physchem
[7] = in vitro
Method: Cytotoxicity. The MTT assay was performed as follows:
The cells were seeded in 96-well plates and grown overnight to near 50% confluency. A serial dilution (1 to 500 μM) of each compound in culture media was prepared and 250 μL/well was added in duplicate. The cells were allowed to grow for various periods of time (6, 24, 48 hours) and any precipitation of compounds in the wells was noted. The assay was performed by removing 200 μL of the culture media and adding 25 μL of MTT solution (2 mg/mL in phosphate buffered saline (PBS)). This was incubated for 4 hours at 37° C. and live cells began to turn purple while the solution remained yellow. To quench the reaction and solubilize the reaction product, 160 μL of acidified isopropanol (4 mL 1N HCl for 96 mL alcohol) were added and the resulting mixture was mixed vigorously to dissolve purple crystals. Absorbance was determined at 550-570 nm on an ELISA plate reader within 0.5-2 hours. […] To obtain the LD50 values for each compound, the concentration at which the absorbance is haft of that for the untreated cells was determined.

[8] = in vitro; conditions: african green monkey, cos-7 cells
Method: MTT cell viability assay. This is a quantitative colorimetric assay for mammalian cell survival and proliferation. Cells were seeded in 96 well plates and grown to near 50% confluency. A serial dilution (1 to 500 μM) of each compound was then prepared in culture media and added (250 μL/well) in duplicate. All culture media was adjusted to a final concentration of 1.0% DMSO (volume basis). The cells were allowed to grow for either 4 hours or 24 hours. The culture media were then removed, and the cells were washed with phosphate buffered saline (PBS) before 50 μL of MTT solution (1 mg/mL in PBS) was added. After incubating for 4 hours at 37° C., the reaction was quenched by adding 160 μL of acidified isopropanol and mixing to dissolve purple crystals. The absorbance was determined within 30 minutes at 570 nm on an ELISA plate reader.
The cytotoxic effect of the inhibitors was determined using the MTT stain viability assay.

[9] = molecular target: HIV-1 protease (Human immunodeficiency virus type 1 group M subtype B, UniProt P03369); assay: biochemical
[10] = molecular target: T2, HIV-1 PR; conditions: pH 8
Method: Once full inhibition was achieved, the enzyme was isolated by reverse phase HPLC on a C3 -Zorbax Protein Plus column (4.6 mm×25 cm), using a 100-minute linear gradient from 5 to 65% acetonitrile in 0.1% TFA. The flow rate was 1 mL/min and the eluent was monitored at 220 nm. The two major components of the isolated sample were concentrated under vacuum, dissolved in a small volume of 50% acetonitrile and 1% acetic acid, and their molecular weights determined by electrospray mass spectrometry. The spectra were recorded on a VG EIectrospray. Mass Spectrometer Model Bio-Q.

| SMILES | KI (inactivation) ([1]; inhibitor concentration resulting in half-maximal inactivation; pH 8.0, 25° C.; read-out: kinact (μM) HIV-1) | incorporation after preincubation of the enzyme [2] | radioactivity incorporation after preincubation [3] | KI (inactivation) [4] | kinact [4] | inhibition at 10 µM [5] | solubility [6] | KI (inactivation) ([1]; read-out: kinact (μM) HIV-1; inhibitor concentration resulting in half-maximal inactivation; pH 8.0, 25° C.) | CC50 at 6 h [7] | CC50 at 4 h [8] | CC50 at 24 h [8] | HIV-1 Protease Therapeutic Index (LD50 /IC50) [9] | IC50 ([9]; HIV-1 Protease IC50 (μM) 1M NaCl) | molecules of inhibitor bound per HIV-1 protease (molecular weight 11,649) [10] |
| --- | --- | --- | --- | --- | --- | --- | --- | --- | --- | --- | --- | --- | --- | --- |
| O=[N+]([O-])c1ccc(OCC2CO2)cc1 (stereo not shown) [EPNP, 1,2-epoxy-3-(p-nitrophenoxy)-propane, reference compound] | 9900 ± 1000 µM | sharply reduced | almost complete elimination of radioactivity incorporation | 6700 ± 600 µM | 0.0482 min⁻¹ | ~50% | – | – | – | – | – | – | – | – |
| O=C(C#CCN1CCC(O)(c2ccc(Cl)cc2)CC1)c1cccc(-c2ccccc2)c1 [UCSF142, 4-(4'-(4"-chlorophenyl)-4'-hydroxypiperidinyl)-1-m-biphenylbut-2-yn-1-one] | – | – | – | 8.6 ± 1 µM | 0.0097 min⁻¹ | – | 100 µM (≈ 43 µg/mL) | 10.7 ± 1.3 µM | 35 µM | 35 µM | < 5 µM | 0.56 | 63 µM | two molecules |
